Test results from PubChem BioAssay (NCI).
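Step 1: Grow cells in 96-well plates. Step 2: Expose to compound for 48 hours at 5 concentrations. Step 3: Interpolate endpoints linearly; if unreached, use highest concentration. Here, GI50 denotes the concentration required for 50% inhibition of growth. TGI marks complete inhibition of growth.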

Key:
Experiment in all cases: growth of human tumour cells (NCI), 48 h
[1] = tested on: A549 NSCLC
[2] = tested on: RPMI-8226 leukemia
[3] = tested on: COLO 205 colon
[4] = tested on: DMS 114 small cell lung
[5] = tested on: ACHN renal
[6] = tested on: IGROV1 ovarian
[7] = tested on: OVCAR-5 ovarian
[8] = tested on: DMS 273 small cell lung
[9] = tested on: SK-MEL-5 melanoma
[10] = tested on: OVCAR-3 ovarian
[11] = tested on: HL-60(TB) leukemia
[12] = tested on: RXF 393 renal
[13] = tested on: M19-MEL melanoma
[14] = tested on: SK-OV-3 ovarian
[15] = tested on: OVCAR-4 ovarian
[16] = tested on: NCI-H460 lung
[17] = tested on: OVCAR-8 ovarian
[18] = tested on: EKVX NSCLC
[19] = tested on: HOP-62 NSCLC
[20] = tested on: CCRF-CEM leukemia
[21] = tested on: LOX IMVI melanoma
[22] = tested on: CAKI-1 renal
[23] = tested on: UACC-62 melanoma
[24] = tested on: U251 CNS
[25] = tested on: K-562 leukemia
[26] = tested on: LXFL 529 NSCLC
[27] = tested on: NCI-H226 lung
[28] = tested on: KM20L2 colon
[29] = tested on: SF-539 CNS
[30] = tested on: NCI-H23 lung
[31] = tested on: UACC-257 melanoma
[32] = tested on: KM12 colon
[33] = tested on: NCI-H522 lung
[34] = tested on: HOP-18 NSCLC
[35] = tested on: SNB-78 CNS
[36] = tested on: M14 melanoma
[37] = tested on: SW-620 colon
[38] = tested on: 786-0 renal
[39] = tested on: MOLT-4 leukemia
[40] = tested on: SK-MEL-28 melanoma
[41] = tested on: SN12C renal
[42] = tested on: HCC-2998 colon
[43] = tested on: HCT-15 colon
[44] = tested on: HT29 colon
[45] = tested on: HOP-92 NSCLC
[46] = tested on: SF-268 CNS
[47] = tested on: SNB-75 CNS
[48] = tested on: DLD-1 colon
[49] = tested on: RXF-631 renal
[50] = tested on: MALME-3M melanoma
[51] = tested on: SF-295 CNS
[52] = tested on: UO-31 renal
[53] = tested on: SK-MEL-2 melanoma
[54] = tested on: HCT-116 colon
[55] = tested on: SNB-19 CNS
[56] = tested on: XF 498 CNS
[57] = tested on: SR leukemia
[58] = tested on: TK-10 renal

CC(C)(C)C(=O)[CH-]C(=O)C(C)(C)C.CC(C)(C)C(=O)[CH-]C(=O)C(C)(C)C.CN(C)c1ccc([O-])cc1.CN(C)c1ccc([O-])cc1.[Ti+4]
GI50 [1]: > 100 µM
TGI [1]: > 100 µM
GI50 [2]: 52.7 µM
TGI [2]: > 100 µM
GI50 [3]: > 100 µM
TGI [3]: > 100 µM
GI50 [4]: > 100 µM
TGI [4]: > 100 µM
GI50 [5]: > 100 µM
TGI [5]: > 100 µM
GI50 [6]: > 100 µM
TGI [6]: > 100 µM
GI50 [7]: > 100 µM
TGI [7]: > 100 µM
GI50 [8]: > 100 µM
TGI [8]: > 100 µM
GI50 [9]: > 100 µM
TGI [9]: > 100 µM
GI50 [10]: 96.2 µM
TGI [10]: > 100 µM
GI50 [11]: > 100 µM
TGI [11]: > 100 µM
GI50 [12]: 14.4 µM
TGI [12]: > 100 µM
GI50 [13]: 79.2 µM
TGI [13]: > 100 µM
GI50 [14]: > 100 µM
TGI [14]: > 100 µM
GI50 [15]: > 100 µM
TGI [15]: > 100 µM
GI50 [16]: > 100 µM
TGI [16]: > 100 µM
GI50 [17]: > 100 µM
TGI [17]: > 100 µM
GI50 [18]: > 100 µM
TGI [18]: > 100 µM
GI50 [19]: > 100 µM
TGI [19]: > 100 µM
GI50 [20]: > 100 µM
TGI [20]: > 100 µM
GI50 [21]: > 100 µM
TGI [21]: > 100 µM
GI50 [22]: > 100 µM
TGI [22]: > 100 µM
GI50 [23]: > 100 µM
TGI [23]: > 100 µM
GI50 [24]: 43.1 µM
TGI [24]: > 100 µM
GI50 [25]: > 100 µM
TGI [25]: > 100 µM
GI50 [26]: 57.9 µM
TGI [26]: > 100 µM
GI50 [27]: > 100 µM
TGI [27]: > 100 µM
GI50 [28]: > 100 µM
TGI [28]: > 100 µM
GI50 [29]: 55.8 µM
TGI [29]: > 100 µM
GI50 [30]: > 100 µM
TGI [30]: > 100 µM
GI50 [31]: > 100 µM
TGI [31]: > 100 µM
GI50 [32]: 64.8 µM
TGI [32]: > 100 µM
GI50 [33]: > 100 µM
TGI [33]: > 100 µM
GI50 [34]: > 100 µM
TGI [34]: > 100 µM
GI50 [35]: > 100 µM
TGI [35]: > 100 µM
GI50 [36]: 60.8 µM
TGI [36]: > 100 µM
GI50 [37]: > 100 µM
TGI [37]: > 100 µM
GI50 [38]: 68.2 µM
TGI [38]: > 100 µM
GI50 [39]: > 100 µM
TGI [39]: > 100 µM
GI50 [40]: > 100 µM
TGI [40]: > 100 µM
GI50 [41]: > 100 µM
TGI [41]: > 100 µM
GI50 [42]: > 100 µM
TGI [42]: > 100 µM
GI50 [43]: > 100 µM
TGI [43]: > 100 µM
GI50 [44]: > 100 µM
TGI [44]: > 100 µM
GI50 [45]: 72 µM
TGI [45]: > 100 µM
GI50 [46]: > 100 µM
TGI [46]: > 100 µM
GI50 [47]: 26.1 µM
TGI [47]: > 100 µM
GI50 [48]: > 100 µM
TGI [48]: > 100 µM
GI50 [49]: > 100 µM
TGI [49]: > 100 µM
GI50 [50]: > 100 µM
TGI [50]: > 100 µM
GI50 [51]: > 100 µM
TGI [51]: > 100 µM
GI50 [52]: > 100 µM
TGI [52]: > 100 µM
GI50 [53]: > 100 µM
TGI [53]: > 100 µM
GI50 [54]: > 100 µM
TGI [54]: > 100 µM

N/N=C1\C(=O)N(CCc2ccccc2)C(=O)C1C(=O)NCCc1ccccc1 (centres undefined)
TGI [1]: > 100 µM
TGI [2]: > 100 µM
TGI [5]: > 100 µM
TGI [6]: > 100 µM
TGI [8]: > 100 µM
TGI [10]: > 100 µM
TGI [11]: > 100 µM
TGI [13]: > 100 µM
TGI [14]: > 100 µM
TGI [55]: > 100 µM
TGI [18]: > 100 µM
TGI [20]: > 100 µM
TGI [21]: > 100 µM
TGI [22]: > 100 µM
TGI [23]: > 100 µM
TGI [24]: > 100 µM
TGI [25]: > 100 µM
TGI [26]: > 100 µM
TGI [27]: > 100 µM
TGI [28]: > 100 µM
TGI [29]: > 100 µM
TGI [30]: > 100 µM
TGI [56]: > 100 µM
TGI [31]: > 100 µM
TGI [32]: > 100 µM
TGI [33]: > 100 µM
TGI [35]: > 100 µM
TGI [36]: > 100 µM
TGI [37]: > 100 µM
TGI [38]: > 100 µM
TGI [39]: > 100 µM
TGI [40]: > 100 µM
TGI [57]: > 100 µM
TGI [41]: > 100 µM
TGI [44]: > 100 µM
TGI [45]: > 100 µM
TGI [46]: > 100 µM
TGI [47]: > 100 µM
TGI [48]: > 100 µM
TGI [49]: > 100 µM
TGI [50]: > 100 µM
TGI [58]: > 100 µM
TGI [51]: > 100 µM
TGI [52]: > 100 µM
TGI [53]: > 100 µM
TGI [54]: > 100 µM
